Legend:
Experiment in all cases: Kinase selectivity, DiscoverX scanMAX Kinase assay panel (% control)
Assay type in all cases: binding
[1] = biological target: T1, kinases of the scanMAX Kinase assay panel (Homo sapiens, UniProt P21127); settings: CDC2L1; 1 uM
T1 construct: purchased DiscoverX Co. (contract measurement) scanMAX Kinase assay panel
How it was run: (§1)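 A 1 uM DMSO solution of compound was applied across the panel kinases, and results were expressed as % control relative to DMSO (100%) and a positive control (0%).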

[2] = biological target: T2, kinases of the scanMAX Kinase assay panel (Homo sapiens, UniProt P37023); settings: ACVRL1; 1 uM
T2 construct: purchased DiscoverX Co. (contract measurement) scanMAX Kinase assay panel
How it was run: as §1

[3] = biological target: T3, kinases of the scanMAX Kinase assay panel (Homo sapiens, UniProt P52333); settings: JAK3(JH1domain-catalytic); 1 uM
T3 construct: purchased DiscoverX Co. (contract measurement) scanMAX Kinase assay panel
T3 sequence (P52333 1-1124): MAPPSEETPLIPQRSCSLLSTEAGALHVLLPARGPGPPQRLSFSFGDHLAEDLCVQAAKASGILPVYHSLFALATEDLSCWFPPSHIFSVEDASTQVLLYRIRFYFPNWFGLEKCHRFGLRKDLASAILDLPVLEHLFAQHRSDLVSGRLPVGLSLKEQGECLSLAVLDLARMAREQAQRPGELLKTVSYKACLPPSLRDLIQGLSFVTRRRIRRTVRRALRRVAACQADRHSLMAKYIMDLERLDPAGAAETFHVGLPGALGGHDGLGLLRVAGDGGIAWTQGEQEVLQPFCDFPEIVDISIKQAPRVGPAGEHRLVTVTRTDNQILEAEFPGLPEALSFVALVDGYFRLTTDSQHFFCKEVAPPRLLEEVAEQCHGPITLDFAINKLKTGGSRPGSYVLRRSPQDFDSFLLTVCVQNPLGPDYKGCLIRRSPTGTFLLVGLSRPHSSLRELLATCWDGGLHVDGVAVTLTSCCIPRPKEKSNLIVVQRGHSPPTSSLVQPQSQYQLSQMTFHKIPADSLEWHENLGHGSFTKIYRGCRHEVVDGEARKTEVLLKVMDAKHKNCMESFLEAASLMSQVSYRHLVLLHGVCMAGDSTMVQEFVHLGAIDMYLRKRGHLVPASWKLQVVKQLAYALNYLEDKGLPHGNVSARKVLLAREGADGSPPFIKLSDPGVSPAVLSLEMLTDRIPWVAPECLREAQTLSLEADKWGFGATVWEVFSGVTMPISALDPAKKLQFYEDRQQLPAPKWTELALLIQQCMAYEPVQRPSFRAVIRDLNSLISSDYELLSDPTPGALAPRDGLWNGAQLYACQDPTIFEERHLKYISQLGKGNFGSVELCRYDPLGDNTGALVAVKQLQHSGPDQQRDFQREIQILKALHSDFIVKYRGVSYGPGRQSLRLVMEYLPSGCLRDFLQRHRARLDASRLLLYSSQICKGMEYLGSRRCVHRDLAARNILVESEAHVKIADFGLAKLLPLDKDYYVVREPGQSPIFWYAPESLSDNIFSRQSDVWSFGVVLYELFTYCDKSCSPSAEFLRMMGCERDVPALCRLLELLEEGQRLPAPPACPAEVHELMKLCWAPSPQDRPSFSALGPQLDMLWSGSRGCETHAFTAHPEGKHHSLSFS
How it was run: as §1

[4] = biological target: T4, kinases of the scanMAX Kinase assay panel (Homo sapiens, UniProt P53355); settings: DAPK1; 1 uM
T4 construct: purchased DiscoverX Co. (contract measurement) scanMAX Kinase assay panel
T4 sequence (P53355 whole entry): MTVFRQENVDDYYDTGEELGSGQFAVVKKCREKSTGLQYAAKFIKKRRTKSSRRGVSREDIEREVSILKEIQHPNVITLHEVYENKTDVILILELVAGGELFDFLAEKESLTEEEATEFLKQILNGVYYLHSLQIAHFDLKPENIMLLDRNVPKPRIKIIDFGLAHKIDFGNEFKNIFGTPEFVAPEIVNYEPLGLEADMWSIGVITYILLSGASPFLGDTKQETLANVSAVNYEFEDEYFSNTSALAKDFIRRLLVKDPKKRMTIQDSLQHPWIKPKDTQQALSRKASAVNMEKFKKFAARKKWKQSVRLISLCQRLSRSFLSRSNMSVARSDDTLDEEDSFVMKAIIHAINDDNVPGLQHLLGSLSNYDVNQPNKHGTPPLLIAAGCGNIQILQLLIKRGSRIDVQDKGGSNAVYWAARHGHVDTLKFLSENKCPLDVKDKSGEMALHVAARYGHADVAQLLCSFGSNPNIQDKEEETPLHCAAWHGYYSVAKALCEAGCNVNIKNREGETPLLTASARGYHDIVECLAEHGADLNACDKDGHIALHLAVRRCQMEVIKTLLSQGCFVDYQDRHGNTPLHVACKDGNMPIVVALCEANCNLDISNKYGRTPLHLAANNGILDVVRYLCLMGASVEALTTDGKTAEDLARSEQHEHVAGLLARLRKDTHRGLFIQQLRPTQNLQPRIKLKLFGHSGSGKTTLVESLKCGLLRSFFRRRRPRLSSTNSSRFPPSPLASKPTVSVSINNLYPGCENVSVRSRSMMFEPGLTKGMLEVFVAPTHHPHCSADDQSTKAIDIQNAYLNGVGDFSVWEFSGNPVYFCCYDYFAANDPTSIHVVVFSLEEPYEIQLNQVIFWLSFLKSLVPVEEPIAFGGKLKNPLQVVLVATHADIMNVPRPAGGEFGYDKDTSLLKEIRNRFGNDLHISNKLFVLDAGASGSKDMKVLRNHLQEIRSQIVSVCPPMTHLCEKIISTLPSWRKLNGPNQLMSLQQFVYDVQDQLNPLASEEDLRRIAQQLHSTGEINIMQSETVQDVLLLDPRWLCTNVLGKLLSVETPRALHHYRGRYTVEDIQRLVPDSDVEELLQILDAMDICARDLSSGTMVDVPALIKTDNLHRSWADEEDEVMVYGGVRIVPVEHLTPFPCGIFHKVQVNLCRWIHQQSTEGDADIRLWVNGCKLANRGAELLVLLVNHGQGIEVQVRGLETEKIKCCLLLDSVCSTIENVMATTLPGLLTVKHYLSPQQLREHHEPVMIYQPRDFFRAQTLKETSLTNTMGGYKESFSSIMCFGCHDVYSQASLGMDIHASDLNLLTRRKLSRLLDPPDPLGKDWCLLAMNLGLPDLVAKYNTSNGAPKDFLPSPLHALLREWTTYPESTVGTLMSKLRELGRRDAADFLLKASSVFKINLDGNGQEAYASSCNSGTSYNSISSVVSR
How it was run: as §1

[5] = biological target: T5, kinases of the scanMAX Kinase assay panel (Homo sapiens, UniProt P78362); settings: kinase SRPK2; 1 uM in DMSO
T5 construct: purchased DiscoverX Co. (contract measurement) scanMAX Kinase assay panel
T5 sequence (P78362 whole entry): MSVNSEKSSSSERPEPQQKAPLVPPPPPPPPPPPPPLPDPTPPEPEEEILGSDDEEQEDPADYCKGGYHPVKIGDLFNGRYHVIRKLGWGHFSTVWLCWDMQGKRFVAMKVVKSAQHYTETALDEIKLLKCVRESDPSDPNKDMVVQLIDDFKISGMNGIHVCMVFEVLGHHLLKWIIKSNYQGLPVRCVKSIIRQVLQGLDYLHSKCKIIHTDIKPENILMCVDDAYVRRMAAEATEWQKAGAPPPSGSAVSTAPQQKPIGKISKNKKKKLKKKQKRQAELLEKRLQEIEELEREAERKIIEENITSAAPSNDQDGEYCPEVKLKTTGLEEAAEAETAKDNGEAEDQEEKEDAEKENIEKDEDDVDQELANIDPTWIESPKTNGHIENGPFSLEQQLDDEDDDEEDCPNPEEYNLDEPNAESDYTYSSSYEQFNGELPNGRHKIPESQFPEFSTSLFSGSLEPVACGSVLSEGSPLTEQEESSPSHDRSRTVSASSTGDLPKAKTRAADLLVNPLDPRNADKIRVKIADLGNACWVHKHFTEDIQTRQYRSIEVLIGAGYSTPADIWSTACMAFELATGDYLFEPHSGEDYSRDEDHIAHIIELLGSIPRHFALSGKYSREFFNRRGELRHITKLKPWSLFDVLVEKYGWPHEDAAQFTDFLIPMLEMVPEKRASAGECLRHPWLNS
How it was run: as §1

[6] = biological target: T6, kinases of the scanMAX Kinase assay panel (Homo sapiens, UniProt Q15303); settings: ERBB4; 1 uM
T6 construct: purchased DiscoverX Co. (contract measurement) scanMAX Kinase assay panel
How it was run: as §1

[7] = biological target: T7, kinases of the scanMAX Kinase assay panel (Homo sapiens, UniProt Q16512); settings: PKN1; 1 uM
T7 construct: purchased DiscoverX Co. (contract measurement) scanMAX Kinase assay panel
How it was run: as §1

[8] = biological target: T8, kinases of the scanMAX Kinase assay panel (Homo sapiens, UniProt Q5S007, G2019S); settings: LRRK2(G2019S); 1 uM
T8 construct: purchased DiscoverX Co. (contract measurement) scanMAX Kinase assay panel
How it was run: as §1

[9] = biological target: T9, kinases of the scanMAX Kinase assay panel (Homo sapiens, UniProt Q6PHR2); settings: kinase ULK3; 1 uM in DMSO
T9 construct: purchased DiscoverX Co. (contract measurement) scanMAX Kinase assay panel
T9 sequence (Q6PHR2 1-472): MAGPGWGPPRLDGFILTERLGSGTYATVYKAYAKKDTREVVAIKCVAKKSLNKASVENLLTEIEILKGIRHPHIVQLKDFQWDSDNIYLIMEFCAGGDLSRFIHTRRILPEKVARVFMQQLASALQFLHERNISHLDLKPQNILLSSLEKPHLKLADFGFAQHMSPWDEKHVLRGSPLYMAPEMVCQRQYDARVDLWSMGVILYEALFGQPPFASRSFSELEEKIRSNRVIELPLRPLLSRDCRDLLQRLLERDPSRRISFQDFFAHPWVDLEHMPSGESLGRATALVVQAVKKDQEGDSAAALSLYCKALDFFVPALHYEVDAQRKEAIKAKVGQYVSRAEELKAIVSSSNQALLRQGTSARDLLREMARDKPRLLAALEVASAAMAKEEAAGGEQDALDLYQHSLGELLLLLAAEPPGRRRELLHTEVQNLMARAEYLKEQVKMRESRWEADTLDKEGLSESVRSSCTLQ
How it was run: as §1

[10] = biological target: T10, kinases of the scanMAX Kinase assay panel (Homo sapiens, UniProt Q9H4B4); settings: PLK3; 1 uM
T10 construct: purchased DiscoverX Co. (contract measurement) scanMAX Kinase assay panel
T10 sequence (Q9H4B4 whole entry): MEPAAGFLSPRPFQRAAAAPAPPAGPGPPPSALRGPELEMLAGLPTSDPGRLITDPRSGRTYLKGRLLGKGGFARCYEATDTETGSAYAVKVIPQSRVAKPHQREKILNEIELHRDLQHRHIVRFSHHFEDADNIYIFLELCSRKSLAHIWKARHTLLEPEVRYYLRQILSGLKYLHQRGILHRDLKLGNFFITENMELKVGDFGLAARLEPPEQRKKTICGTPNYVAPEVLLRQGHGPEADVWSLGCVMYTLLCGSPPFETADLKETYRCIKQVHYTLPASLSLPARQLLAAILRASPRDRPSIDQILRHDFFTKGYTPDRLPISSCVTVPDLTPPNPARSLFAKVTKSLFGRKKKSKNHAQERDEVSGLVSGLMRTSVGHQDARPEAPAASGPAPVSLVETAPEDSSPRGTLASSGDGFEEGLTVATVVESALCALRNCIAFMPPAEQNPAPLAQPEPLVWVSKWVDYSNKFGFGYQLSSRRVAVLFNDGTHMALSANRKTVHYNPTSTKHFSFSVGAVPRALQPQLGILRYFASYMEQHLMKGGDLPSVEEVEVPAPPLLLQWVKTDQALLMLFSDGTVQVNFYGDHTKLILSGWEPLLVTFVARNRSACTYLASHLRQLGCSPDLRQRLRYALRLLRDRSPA
How it was run: as §1

[11] = biological target: T11, kinases of the scanMAX Kinase assay panel (Homo sapiens, UniProt Q9Y2H9); settings: MAST1; 1 uM
T11 construct: purchased DiscoverX Co. (contract measurement) scanMAX Kinase assay panel
T11 sequence (Q9Y2H9 whole entry): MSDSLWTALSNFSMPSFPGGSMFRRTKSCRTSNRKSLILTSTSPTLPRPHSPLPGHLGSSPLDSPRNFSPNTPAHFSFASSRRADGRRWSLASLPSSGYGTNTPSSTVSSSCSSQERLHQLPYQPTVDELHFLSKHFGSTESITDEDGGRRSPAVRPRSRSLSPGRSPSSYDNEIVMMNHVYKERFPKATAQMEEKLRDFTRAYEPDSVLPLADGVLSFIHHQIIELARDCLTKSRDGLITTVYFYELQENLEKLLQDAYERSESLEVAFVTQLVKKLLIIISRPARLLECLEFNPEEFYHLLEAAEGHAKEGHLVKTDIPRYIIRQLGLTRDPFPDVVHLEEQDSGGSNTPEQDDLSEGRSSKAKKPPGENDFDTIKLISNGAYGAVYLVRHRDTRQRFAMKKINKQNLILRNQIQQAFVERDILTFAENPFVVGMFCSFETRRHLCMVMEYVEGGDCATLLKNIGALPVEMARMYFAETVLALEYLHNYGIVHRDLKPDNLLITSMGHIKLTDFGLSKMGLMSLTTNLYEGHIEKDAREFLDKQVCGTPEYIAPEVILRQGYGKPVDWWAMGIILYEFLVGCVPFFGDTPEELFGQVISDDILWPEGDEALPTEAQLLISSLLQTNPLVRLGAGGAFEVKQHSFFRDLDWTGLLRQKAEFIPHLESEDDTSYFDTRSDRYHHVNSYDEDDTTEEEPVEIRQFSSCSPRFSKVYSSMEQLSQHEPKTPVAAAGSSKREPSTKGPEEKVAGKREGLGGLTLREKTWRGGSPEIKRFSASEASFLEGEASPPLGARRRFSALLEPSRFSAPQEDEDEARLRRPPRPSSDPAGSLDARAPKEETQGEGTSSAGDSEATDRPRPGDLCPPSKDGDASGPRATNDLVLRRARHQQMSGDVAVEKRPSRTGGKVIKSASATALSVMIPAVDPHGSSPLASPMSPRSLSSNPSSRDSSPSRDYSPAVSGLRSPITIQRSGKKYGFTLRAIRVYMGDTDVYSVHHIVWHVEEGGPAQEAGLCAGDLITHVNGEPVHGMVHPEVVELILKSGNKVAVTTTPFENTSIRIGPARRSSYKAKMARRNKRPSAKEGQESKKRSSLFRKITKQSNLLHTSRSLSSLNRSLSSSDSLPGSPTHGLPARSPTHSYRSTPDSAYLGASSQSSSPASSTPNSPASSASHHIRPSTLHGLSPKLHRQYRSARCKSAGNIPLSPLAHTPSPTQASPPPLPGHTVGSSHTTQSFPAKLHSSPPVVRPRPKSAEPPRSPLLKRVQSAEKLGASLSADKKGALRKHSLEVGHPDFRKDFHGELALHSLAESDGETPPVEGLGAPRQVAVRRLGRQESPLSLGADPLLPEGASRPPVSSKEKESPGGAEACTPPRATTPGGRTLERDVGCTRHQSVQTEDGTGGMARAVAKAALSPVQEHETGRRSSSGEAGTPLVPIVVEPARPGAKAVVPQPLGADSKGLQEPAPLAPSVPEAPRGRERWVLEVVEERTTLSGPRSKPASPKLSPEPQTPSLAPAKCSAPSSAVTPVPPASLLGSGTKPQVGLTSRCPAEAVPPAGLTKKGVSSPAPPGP
How it was run: as §1

T1 sequence (P21127 whole entry): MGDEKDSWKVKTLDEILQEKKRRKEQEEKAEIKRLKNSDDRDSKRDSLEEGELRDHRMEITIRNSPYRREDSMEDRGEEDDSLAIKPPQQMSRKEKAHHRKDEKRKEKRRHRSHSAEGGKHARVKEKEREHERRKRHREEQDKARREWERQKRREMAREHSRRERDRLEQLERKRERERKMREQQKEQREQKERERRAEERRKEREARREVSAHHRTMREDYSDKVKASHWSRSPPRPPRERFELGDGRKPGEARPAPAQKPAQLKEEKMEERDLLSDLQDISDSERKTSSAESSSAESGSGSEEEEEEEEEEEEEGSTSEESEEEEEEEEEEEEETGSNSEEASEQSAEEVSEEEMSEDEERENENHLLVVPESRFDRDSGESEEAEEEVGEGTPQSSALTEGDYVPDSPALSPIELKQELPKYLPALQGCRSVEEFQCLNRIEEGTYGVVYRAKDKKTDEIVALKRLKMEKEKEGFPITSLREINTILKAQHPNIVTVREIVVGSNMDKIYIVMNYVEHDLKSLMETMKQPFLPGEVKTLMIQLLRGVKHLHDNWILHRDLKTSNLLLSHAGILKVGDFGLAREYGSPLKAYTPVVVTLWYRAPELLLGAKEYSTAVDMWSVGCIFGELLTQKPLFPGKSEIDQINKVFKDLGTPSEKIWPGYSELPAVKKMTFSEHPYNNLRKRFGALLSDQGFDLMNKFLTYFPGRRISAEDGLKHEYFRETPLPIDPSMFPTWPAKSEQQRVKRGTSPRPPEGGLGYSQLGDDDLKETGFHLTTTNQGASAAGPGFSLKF

| Compound | remaining binding at 1 µM [1] [%] | remaining binding at 1 µM [2] [%] | remaining binding at 1 µM [3] [%] | remaining binding at 1 µM [4] [%] | remaining binding at 1 µM [5] [%] | remaining binding at 1 µM [6] [%] | remaining binding at 1 µM [7] [%] | remaining binding at 1 µM [8] [%] | remaining binding at 1 µM [9] [%] | remaining binding at 1 µM [10] [%] | remaining binding at 1 µM [11] [%] |
| --- | --- | --- | --- | --- | --- | --- | --- | --- | --- | --- | --- |
| CNc1nc(Nc2ccc(C(=O)N3CCOCC3)cc2OC)nc2[nH]cc(C#N)c12 [Example 1, 2-((2-methoxy-4-(morpholine-4-carbonyl)phenyl)amino)-4-(methylamino)-7H-pyrrolo[2,3-d]pyrimidine-5-carbonitrile] | 100 | 88 | 64 | 8.5 | 100 | 99 | 100 | 0 | 62 | 57 | 100 |
| CC1(Nc2nc(Nc3cnn([C@H]4CCN(C5COC5)C[C@@H]4F)c3Cl)nc3[nH]cc(C#N)c23)CC1 [Example 52, 2-((5-chloro-1-((3S,4S)-3-fluoro-1-(oxetane-3-yl)piperidine-4-yl)-1H-pyrazole-4-yl)amino)((1-methylcyclopropyl)amino)-7H-pyrrolo[2,3-d]pyrimidine-5-carbonitrile] | 84 | 100 | 0 | 12 | 58 | 45 | 67 | 2.6 | 0.2 | 99 | 74 |
| CCNc1nc(Nc2ccc(C(=O)N3CCC(N4CCOCC4)CC3)cc2OC)nc2[nH]cc(C(F)(F)F)c12 [Example 104, (4-((4-(ethylamino)-5-(trifluoromethyl)-7H-pyrrolo[2,3-d]pyrimidine-2-yl)amino)-3-methoxyphenyl)(4-morpholinopiperidine-1-yl)methanone] | 99 | 97 | 100 | 49 | 74 | 100 | 95 | 2 | 100 | 89 | 72 |
